How the values were obtained:
Type in all cases: biochemical
mTORC = target: T1, mTORC (Homo sapiens, UniProt P42345); assay: In-vitro mTORC inhibition assay
T1 construct: purchased Invitrogen
Protocol: The compounds described herein can be tested against recombinant mTOR (Invitrogen) in an assay containing 50 mM HEPES, pH 7.5, 1 mM EGTA, 10 mM MgCl2, 2.5 mM, 0.01% Tween, 10 μM ATP (2.5 μCi of […]), and 3 μg/mL BSA. Rat recombinant PHAS-1/4EBP1 (Calbiochem; 2 mg/mL) is used as a substrate. Reactions are terminated by spotting onto nitrocellulose, which is washed with 1M NaCl/1% phosphoric acid (approximately 6 times, 5-10 minutes each). Sheets are dried and the transferred radioactivity quantitated by phosphorimaging.
Other kits or systems for assaying mTOR activity are commercially available. For instance, one can use Invitrogen's LanthaScreen™ Kinase assay to test the inhibitors of mTOR disclosed herein. This assay is a time resolved FRET platform that measures the phosphorylation of GFP labeled 4EBP1 by mTOR kinase. The kinase reaction is performed in a white 384 well microtitre plate. The total reaction volume is 20 ul per well and the reaction buffer composition is 50 mM HEPES pH7.5, 0.01% Polysorbate 20, 1 mM EGTA, 10 mM MnCl2, and 2 mM DTT. In the first step, each well receives 2 ul of test compound in 20% dimethylsulphoxide resulting in a 2% DMSO final concentration. Next, 8 ul of mTOR diluted in reaction buffer is added per well for a 60 ng/ml final concentration. To start the reaction, 10 ul of an ATP/GFP-4EBP1 mixture (diluted in reaction buffer) is added per well for a final concentration of 10 uM ATP and 0.5 uM GFP-4EBP1. The plate is sealed and incubated for 1 hour at room temperature. The reaction is stopped by adding 10 ul per well of a Tb-anti-pT46 4EBP1 antibody/EDTA mixture (diluted in TR-FRET buffer) for a final concentration of 1.3 nM antibody and 6.7 mM EDTA. The plate is sealed, incubated for 1 hour at room temperature, and then read on a plate reader set up for LanthaScreen™ TR-FRET. Data is analyzed and IC50s are generated using GraphPad Prism 5.

PI3K δ = target: T2, PI3K δ (Homo sapiens, UniProt O00329); assay: In-vitro PI3K δ inhibition assay
T2 construct: purchased Upstate
Protocol: (§1) Class I PI3-Ks can be either purchased (p110α/p85α, p110β/p85α, p110β/p85α from Upstate, and p110γ from Sigma) or expressed as previously described (Knight et al., 2004). IC50 values are measured using either a standard TLC assay for lipid kinase activity (described below) or a high-throughput membrane capture assay. Kinase reactions are performed by preparing a reaction mixture containing kinase, inhibitor (2% DMSO final concentration), buffer (25 mM HEPES, pH 7.4, 10 mM MgCl2), and freshly sonicated phosphatidylinositol ([…]). Reactions are initiated by the addition of ATP containing 10 μCi of γ-32P-ATP to a final concentration 10 or 100 μM and allowed to proceed for 5 minutes at room temperature. For TLC analysis, reactions are then terminated by the addition of 105 μl 1N HCl followed by 160 μl CHCl3:MeOH (1:1). […] The TLC plates are then dried, exposed to a phosphorimager screen (Storm, Amersham), and quantitated. For each compound, kinase activity is measured at 10-12 inhibitor concentrations representing two-fold dilutions from the highest concentration tested (typically, 200 μM).
(§2) Other commercial kits or systems for assaying PI3-K activities are available. […] The plate is sealed, incubated for 1 hour at room temperature, and then read on an appropriate plate reader. Data is analyzed and IC50s are generated using GraphPad Prism 5.

PI3K α = target: T3, PI3K α (Homo sapiens, UniProt P42336); assay: In-vitro PI3K α inhibition assay
T3 construct: purchased Upstate
Protocol: Class I PI3-Ks can be either purchased (p110α/p85α, p110β/p85α, p110β/p85α from Upstate, and p110γ from Sigma) or expressed as previously described (Knight et al., 2004). IC50 values are measured using either a standard TLC assay for lipid kinase activity (described below) or a high-throughput membrane capture assay. Kinase reactions are performed by preparing a reaction mixture containing kinase, inhibitor (2% DMSO final concentration), buffer (25 mM HEPES, pH 7.4, 10 mM MgCl2), and freshly sonicated phosphatidylinositol ([…]). Reactions are initiated by the addition of ATP containing 10 μCi of γ-32P-ATP to a final concentration 10 or 100 μM and allowed to proceed for 5 minutes at room temperature. For TLC analysis, reactions are then terminated by the addition of 105 μl 1N HCl followed by 160 μl CHCl3:MeOH (1:1). The biphasic mixture is vortexed, briefly centrifuged, and the organic phase is transferred to a new tube using a gel loading pipette tip precoated with CHCl3. This extract is spotted on TLC plates and developed for 3-4 hours in a 65:35 solution of n-propanol:1M acetic acid. The TLC plates are then dried, exposed to a phosphorimager screen (Storm, Amersham), and quantitated. For each compound, kinase activity is measured at 10-12 inhibitor concentrations representing two-fold dilutions from the highest concentration tested (typically, 200 μM).
Other commercial kits or systems for assaying PI3-K activities are available. The commercially available kits or systems can be used to screen for inhibitors and/or agonists of PI3-Ks including but not limited to PI3-Kinase α, β, δ, and γ. An exemplary system is PI3-Kinase (human) HTRF™ Assay from Upstate. […] Briefly, the assay is a time resolved FRET assay that indirectly measures PI3 product formed by the activity of a PI3-K. The kinase reaction is performed in a microtitre plate (e.g., a 384 well microtitre plate). […] The plate is sealed, incubated for 1 hour at room temperature, and then read on an appropriate plate reader. Data is analyzed and IC50s are generated using GraphPad Prism 5.

PI3K β = target: T4, PI3K β (Homo sapiens, UniProt P42338); assay: In-vitro PI3K β inhibition assay
T4 construct: purchased Upstate
Protocol: as §1, §2

T3 sequence (P42336 whole entry): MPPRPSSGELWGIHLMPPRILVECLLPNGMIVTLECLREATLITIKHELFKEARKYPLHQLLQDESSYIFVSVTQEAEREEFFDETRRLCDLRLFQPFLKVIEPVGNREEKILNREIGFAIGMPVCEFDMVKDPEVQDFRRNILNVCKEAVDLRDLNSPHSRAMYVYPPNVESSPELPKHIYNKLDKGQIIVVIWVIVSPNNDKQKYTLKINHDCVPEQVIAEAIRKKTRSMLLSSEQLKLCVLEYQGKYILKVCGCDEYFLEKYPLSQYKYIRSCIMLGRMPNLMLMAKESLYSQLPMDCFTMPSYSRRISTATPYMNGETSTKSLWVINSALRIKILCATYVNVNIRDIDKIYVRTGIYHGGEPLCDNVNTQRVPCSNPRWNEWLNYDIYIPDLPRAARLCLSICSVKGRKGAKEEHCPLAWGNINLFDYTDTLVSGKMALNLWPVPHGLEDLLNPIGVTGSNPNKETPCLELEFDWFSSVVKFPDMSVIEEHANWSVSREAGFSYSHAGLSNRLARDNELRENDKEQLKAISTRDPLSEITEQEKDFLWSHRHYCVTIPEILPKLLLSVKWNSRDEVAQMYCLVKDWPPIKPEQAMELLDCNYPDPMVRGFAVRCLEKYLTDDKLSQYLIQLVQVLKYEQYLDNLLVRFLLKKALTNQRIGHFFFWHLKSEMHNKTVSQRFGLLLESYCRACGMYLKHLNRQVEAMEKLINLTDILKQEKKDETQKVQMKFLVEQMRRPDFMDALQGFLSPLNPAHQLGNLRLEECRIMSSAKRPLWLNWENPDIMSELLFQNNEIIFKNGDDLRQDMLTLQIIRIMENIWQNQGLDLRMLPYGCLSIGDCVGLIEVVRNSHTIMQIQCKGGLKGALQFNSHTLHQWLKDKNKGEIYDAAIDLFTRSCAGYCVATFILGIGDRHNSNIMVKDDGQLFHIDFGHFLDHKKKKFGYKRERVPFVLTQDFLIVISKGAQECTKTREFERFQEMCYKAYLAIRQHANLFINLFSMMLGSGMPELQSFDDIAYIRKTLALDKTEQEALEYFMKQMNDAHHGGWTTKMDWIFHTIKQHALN
T3 sequence (P27986 whole entry partner): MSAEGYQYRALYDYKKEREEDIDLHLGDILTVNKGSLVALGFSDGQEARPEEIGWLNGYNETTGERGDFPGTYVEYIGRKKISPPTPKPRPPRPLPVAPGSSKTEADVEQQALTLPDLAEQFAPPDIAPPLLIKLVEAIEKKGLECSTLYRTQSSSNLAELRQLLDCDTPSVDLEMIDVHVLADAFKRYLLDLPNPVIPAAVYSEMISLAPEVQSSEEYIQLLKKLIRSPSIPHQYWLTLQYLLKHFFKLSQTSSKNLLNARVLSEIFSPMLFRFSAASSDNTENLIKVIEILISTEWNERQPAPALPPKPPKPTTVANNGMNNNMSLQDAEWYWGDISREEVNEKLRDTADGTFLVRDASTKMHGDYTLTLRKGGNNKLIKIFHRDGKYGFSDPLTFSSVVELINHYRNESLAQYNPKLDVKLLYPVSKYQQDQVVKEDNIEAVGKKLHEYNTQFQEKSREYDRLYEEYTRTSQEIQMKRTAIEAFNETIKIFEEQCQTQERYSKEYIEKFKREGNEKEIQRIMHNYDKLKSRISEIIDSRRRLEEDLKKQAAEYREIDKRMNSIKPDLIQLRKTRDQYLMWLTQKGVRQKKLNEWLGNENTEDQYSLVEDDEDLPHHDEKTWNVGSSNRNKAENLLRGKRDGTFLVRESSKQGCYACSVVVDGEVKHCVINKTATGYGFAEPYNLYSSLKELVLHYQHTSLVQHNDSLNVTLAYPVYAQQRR
T1 sequence (P42345 1360-2549 limits assumed): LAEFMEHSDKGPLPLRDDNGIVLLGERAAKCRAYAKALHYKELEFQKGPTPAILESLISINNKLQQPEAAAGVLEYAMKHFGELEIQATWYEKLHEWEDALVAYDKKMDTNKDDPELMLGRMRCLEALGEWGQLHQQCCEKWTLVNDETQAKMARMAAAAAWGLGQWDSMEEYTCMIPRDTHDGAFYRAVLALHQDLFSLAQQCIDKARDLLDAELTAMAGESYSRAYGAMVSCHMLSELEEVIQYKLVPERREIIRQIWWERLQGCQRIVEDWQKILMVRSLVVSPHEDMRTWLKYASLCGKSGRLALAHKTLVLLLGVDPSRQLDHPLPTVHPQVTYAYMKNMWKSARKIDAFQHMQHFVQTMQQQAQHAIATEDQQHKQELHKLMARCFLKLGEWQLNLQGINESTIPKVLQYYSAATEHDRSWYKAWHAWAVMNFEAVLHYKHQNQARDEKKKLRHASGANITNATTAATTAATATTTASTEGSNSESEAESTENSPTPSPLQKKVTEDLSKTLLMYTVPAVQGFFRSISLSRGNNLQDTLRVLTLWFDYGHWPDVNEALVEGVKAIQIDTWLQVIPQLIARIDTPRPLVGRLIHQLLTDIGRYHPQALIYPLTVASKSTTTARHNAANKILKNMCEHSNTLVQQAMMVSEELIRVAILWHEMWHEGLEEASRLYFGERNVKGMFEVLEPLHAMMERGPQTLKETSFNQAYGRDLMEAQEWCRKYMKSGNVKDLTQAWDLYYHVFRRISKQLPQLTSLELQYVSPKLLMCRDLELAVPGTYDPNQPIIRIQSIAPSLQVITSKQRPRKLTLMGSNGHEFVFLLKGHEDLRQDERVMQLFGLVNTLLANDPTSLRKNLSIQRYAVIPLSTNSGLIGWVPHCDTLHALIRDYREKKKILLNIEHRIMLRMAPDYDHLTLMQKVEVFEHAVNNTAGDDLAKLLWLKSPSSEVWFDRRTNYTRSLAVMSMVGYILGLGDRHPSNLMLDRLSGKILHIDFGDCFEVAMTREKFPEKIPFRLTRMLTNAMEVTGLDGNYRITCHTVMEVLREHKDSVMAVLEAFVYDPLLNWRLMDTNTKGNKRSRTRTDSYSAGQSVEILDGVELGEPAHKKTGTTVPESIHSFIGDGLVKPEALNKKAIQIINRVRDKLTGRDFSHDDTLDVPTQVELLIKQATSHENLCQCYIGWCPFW
T4 sequence (P42338 whole entry): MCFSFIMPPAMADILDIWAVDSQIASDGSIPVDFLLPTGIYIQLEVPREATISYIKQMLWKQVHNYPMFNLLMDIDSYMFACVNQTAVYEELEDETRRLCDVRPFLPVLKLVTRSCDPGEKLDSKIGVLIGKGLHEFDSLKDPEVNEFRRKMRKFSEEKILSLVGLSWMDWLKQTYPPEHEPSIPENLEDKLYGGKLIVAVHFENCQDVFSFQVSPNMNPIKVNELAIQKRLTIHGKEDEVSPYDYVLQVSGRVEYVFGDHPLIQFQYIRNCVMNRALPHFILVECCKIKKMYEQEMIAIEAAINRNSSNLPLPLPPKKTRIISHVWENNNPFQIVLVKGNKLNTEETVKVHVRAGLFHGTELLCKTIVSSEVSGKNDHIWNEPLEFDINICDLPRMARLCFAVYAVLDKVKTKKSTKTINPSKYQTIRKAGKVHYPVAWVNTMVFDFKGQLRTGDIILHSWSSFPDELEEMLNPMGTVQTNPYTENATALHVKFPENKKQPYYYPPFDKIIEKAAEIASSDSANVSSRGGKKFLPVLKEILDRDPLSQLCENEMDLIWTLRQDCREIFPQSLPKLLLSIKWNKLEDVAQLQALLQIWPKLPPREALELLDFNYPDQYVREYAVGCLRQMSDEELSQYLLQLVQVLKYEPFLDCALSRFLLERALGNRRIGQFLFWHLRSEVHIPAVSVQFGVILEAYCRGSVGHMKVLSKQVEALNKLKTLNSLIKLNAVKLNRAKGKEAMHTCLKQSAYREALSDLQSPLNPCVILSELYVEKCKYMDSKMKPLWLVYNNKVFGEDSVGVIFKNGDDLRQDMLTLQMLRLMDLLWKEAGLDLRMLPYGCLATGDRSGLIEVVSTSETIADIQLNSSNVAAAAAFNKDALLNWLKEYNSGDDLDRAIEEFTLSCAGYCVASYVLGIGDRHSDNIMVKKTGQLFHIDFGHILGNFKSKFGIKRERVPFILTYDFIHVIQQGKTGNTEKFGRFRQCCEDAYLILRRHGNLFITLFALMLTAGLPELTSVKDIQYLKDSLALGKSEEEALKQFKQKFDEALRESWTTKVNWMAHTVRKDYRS
T4 sequence (P27986 whole entry partner): as the sequence (P27986 whole entry partner) above

Compound	IC50 (mTORC)	IC50 (PI3K δ)	IC50 (PI3K α)	IC50 (PI3K β)
CC(C)n1nc(-c2cc3cc(O)ccc3[nH]2)c2c(N)nccc21 [Compound 1]	≤ 1000 nM			
CC(C)n1nc(-c2cnc3[nH]ccc3c2)c2c(N)nccc21 [Compound 3]	> 1000 nM	> 1000 nM	> 1000 nM	> 1000 nM
CC(C)n1nc(-c2ccc3oc(N)nc3c2)c2c(N)nccc21 [Compound 4]	≤ 1000 nM		> 1000 nM	> 1000 nM
CC(C)n1nc(-c2ccc3onc(N)c3c2)c2c(N)nccc21 [Compound 2]	> 1000 nM		> 1000 nM	

— US8637542B2, “Kinase inhibitors and methods of use” (Intellikine, Inc., priority 2008, dated 2014)
